Assay results: article PMC10584170, “Machine learning-based phenotypic imaging to characterise the targetable biology of Plasmodium falciparum male gametocytes for the development of transmission-blocking antimalarials” (PLOS Pathogens, 2023)

Key:
[1] = test system: P. falciparum female gametocytes; test: P. falciparum Dual Gamete Formation Assay (PfDGFA), female readout (Pfs25-positive female gametes); format: cell-based, Plasmodium falciparum NF54; conditions: for Average inhibition female (%): average of replicates; for % inhibition female (individual replicates) R1: replicate R1; for % inhibition female (individual replicates) R3: replicate R3; for % inhibition female (individual replicates) R4: replicate R4
Summary of the method: (§1)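 Read-outs are automated image counts of exflagellation centres (brightfield, 10 frames over 1 s) and Pfs25-positive female gametes (Cy3 fluorescence).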

[2] = test system: P. falciparum male gametocytes; test: P. falciparum Dual Gamete Formation Assay (PfDGFA), male readout (exflagellation); format: cell-based, Plasmodium falciparum NF54; conditions: for Average inhibition male (%): average of replicates; for % inhibition male (individual replicates) R1: replicate R1; for % inhibition male (individual replicates) R3: replicate R3; for % inhibition male (individual replicates) R4: replicate R4; for Activity: hit = >50% inhibition in male or female readout in at least 3 replicates, 0 = no class assigned
Summary of the method: as §1

[3] = 2µM, 24h preincubation with gametocytes prior to induction of gametogenesis
[4] = 2µM, 24h preincubation, hits selected on >50% inhibition in the female readout across replicates
[5] = 2µM, 24h preincubation, hits selected on >50% inhibition in the male readout across replicates
[6] = PfDGFA at 2µM, 24h preincubation
[7] = 2µM, 24h preincubation, number of replicates with >50% inhibition in the female readout
[8] = 2µM, 24h preincubation, number of replicates with >50% inhibition in the male readout
[9] = PfDGFA at 2µM, 24h preincubation with gametocytes
[10] = number of replicates with >50% inhibition in the female readout, 2µM
[11] = number of replicates with >50% inhibition in the male readout, 2µM

SMILES	Average inhibition female (%) [1, 3]	% inhibition female (individual replicates) R1 [1, 3]	% inhibition female (individual replicates) R3 [1, 3]	% inhibition female (individual replicates) R4 [1, 3]	HitlevelF [1, 4]	Average inhibition male (%) [2, 3]	% inhibition male (individual replicates) R1 [2, 3]	% inhibition male (individual replicates) R3 [2, 3]	% inhibition male (individual replicates) R4 [2, 3]	HitlevelM [2, 5]	Activity [2, 6]	HitlevelF [1, 7]	HitlevelM [2, 8]	also measured
Cc1nc(N)nc(N)c1CCCOc1ccccc1Br [TCMDC-138069]	5.9%	14.2%	13.3%	-1.6%	0	1.8%	12.4%	-15.7%	-23.1%	0	0	–	–	–
Cc1nc(N)nc(N)c1-c1ccc(Br)c([N+](=O)[O-])c1 [TCMDC-138071]	6.9%	11.0%	2.2%	10.1%	0	-11.3%	15.3%	5.2%	-48.5%	0	0	–	–	–
Cl.Clc1ccc(CNCCCCCCCNCc2ccc(Cl)c(Cl)c2)cc1Cl [TCMDC-138075]	16.8%	19.3%	11.6%	13.1%	–	58.0%	51.9%	–	51.1%	–	–	0	3	–
CC(=O)c1ccc2nc[nH]c(=O)c2c1 [TCMDC-138172]	–	–	–	–	–	–	–	–	–	–	–	–	–	Average inhibition female (%) [1, 9]: 55.1%; % inhibition female (individual replicates) R1 [1, 9]: 62.7%; % inhibition female (individual replicates) R3 [1, 9]: 39.9%; % inhibition female (individual replicates) R4 [1, 9]: 66.0%; HitlevelF [1, 10]: 3; Average inhibition male (%) [2, 9]: 79.0%; % inhibition male (individual replicates) R1 [2, 9]: 88.9%; % inhibition male (individual replicates) R3 [2, 9]: 57.7%; % inhibition male (individual replicates) R4 [2, 9]: 96.3%; HitlevelM [2, 11]: 4
COc1cc2nc(N3CCN(C(=O)c4c(Cl)nsc4-c4ccccc4Cl)CC3)nc(N)c2cc1OC.O=C(O)C(F)(F)F [TCMDC-138186]	23.5%	19.4%	2.1%	50.6%	–	36.4%	33.1%	-9.1%	66.9%	–	–	1	2	–
Cl.Cn1ccc(-c2cccc(Nc3ccnc4cc(-c5nccs5)ccc34)c2)n1 [TCMDC-138336]	19.1%	19.3%	21.6%	9.3%	–	33.2%	36.9%	–	5.3%	–	–	0	1	–
CN(C)CCNCc1ccc(-c2ccc3c(Nc4ccc(Oc5ccccc5)cc4)ccnc3c2)o1 [TCMDC-138399]	–	–	–	–	–	–	–	–	–	–	–	–	–	Average inhibition female (%) [1, 9]: 26.2%; % inhibition female (individual replicates) R1 [1, 9]: 29.8%; % inhibition female (individual replicates) R3 [1, 9]: 23.6%; % inhibition female (individual replicates) R4 [1, 9]: 16.9%; HitlevelF [1, 10]: 0; Average inhibition male (%) [2, 9]: 74.5%; % inhibition male (individual replicates) R1 [2, 9]: 82.1%; % inhibition male (individual replicates) R3 [2, 9]: 51.0%; % inhibition male (individual replicates) R4 [2, 9]: 85.6%; HitlevelM [2, 11]: 4
CN1CCN(Cc2nc(-c3ccc4c(Nc5ccc(Oc6ccccc6)cc5)ccnc4c3)cs2)CC1 [TCMDC-138409]	17.5%	9.4%	19.5%	18.6%	0	49.4%	33.1%	19.5%	56.9%	2	0	–	–	–
CN1CCN(Cc2nc(-c3ccc4c(Nc5ccc(F)c(O)c5)ccnc4c3)cs2)CC1 [TCMDC-138439]	3.7%	13.1%	-10.3%	4.9%	0	3.8%	-1.6%	1.0%	20.9%	0	0	–	–	–
